In the assay the test system is green peach aphid (Myzus persicae). Description: Insecticidal test for green peach aphid (100 ppm), Test Example 1. In kind it is in vivo. The settings on record: 120 h, 100 ppm spray on Komatsuna leaf, larvae, counted 5 days after spraying, 25° C., read-out: mortality (%). Here is the method:
Insecticidal test for green peach aphid (Myzus persicae) (100 ppm)
Water (30 ml) was put into a beaker, and a leaf of Komatsuna (Brassica var. rapa) was placed within the beaker such that the stem was immersed in water. On the leaf of Komatsuna, five green peach aphids were released and allowed to fertilize. Two days after the releasing, imagoes were removed and the number of larvae was counted.
A surfactant Newcol NE-710F (trademark, produced by Nippon Nyukazai Co., Ltd., 2%) was dissolved in aqueous acetone (95% aqueous solution, 98%) to prepare solution 1. Next, a dispersant Gousenol GLO5-S (trademark, produced by Nippon Nyukazai Co., Ltd., 0.2% aqueous solution, 0.2%) was dissolved in water (99.8%) to prepare solution 2.
To each of the compounds (8 mg) of the present invention, the above solution 1 (0.4 ml), the above solution 2 (0.4 ml) and water (8 ml) were added. Further, the compounds of the present invention were each diluted with water so that the concentration of each compound was 100 ppm {as a spreading agent, Gramin S (trademark, produced by Sankyo Co., Ltd.) was added so as to have a concentration of 0.01%}.
The above chemical liquid (8 ml) was sprayed on the leaf of Komatsuna by use of a rotary spraying tower. The leaf of Komatsuna was put back in the beaker. Then, the beaker was placed in a thermostatic chamber of 25° C. for 16 hours in the light and for 8 hours in the dark. 5 Days after the spraying, the number of dead insects was counted to calculate the mortality (%).

For 33 compounds, mortality results are on record in patent publication US7015236B2, “N-heteroarylnicotinamide derivatives” (Sankyo Agro Company, Limited, priority 2001, dated 2006).

Turning to `CC(C)c1cc(NC(=O)c2cnccc2C(F)(F)F)on1` [Example 6, N-(3-Isopropyl-5-isoxazolyl)-4-(trifluoromethyl)nicotinamide], the mortality at 100 ppm was not below 95%.

For `CON=Cc1noc(NC(=O)c2cnccc2C(F)(F)F)c1Cl` [Example 60, N-(4-Chloro-3-methoxyiminomethyl-5-isoxazolyl)-4-(trifluoromethyl)nicotinamide], the mortality at 100 ppm was not below 95%.

In the case of `O=C(Nc1oncc1Oc1ccccc1)c1cnccc1C(F)(F)F` [Example 51, N-(4-Phenoxy-5-isoxazolyl)-4-(trifluoromethyl)nicotinamide], the mortality at 100 ppm is not below 95%.

As for `O=C(Nc1oncc1-c1ccc(OC(F)(F)F)cc1)c1cnccc1C(F)(F)F` [Example 58, N-[4-(4-Trifluoromethoxyphenyl)-5-isoxazolyl]-4-(trifluoromethyl)nicotinamide], the mortality at 100 ppm was not below 95%.

In the case of `O=C(Nc1oncc1-c1ccccc1)c1cnccc1C(F)(F)F` [Example 53, N-(4-Phenyl-5-isoxazolyl)-4-(trifluoromethyl)nicotinamide], the mortality at 100 ppm is not below 95%.

Consider `CCCCCCc1cnoc1N(C(=O)c1cnccc1C(F)(F)F)C(=O)c1cnccc1C(F)(F)F` [Example 44, 5-[N,N-Bis(4-trifluoromethylnicotinoyl)]amino-4-hexylisoxazole], for which the mortality at 100 ppm was not below 95%.

In the case of `COc1ccc(-c2cnoc2NC(=O)c2cnccc2C(F)(F)F)cc1` [Example 55, N-[4-(4-Methoxyphenyl)-5-isoxazolyl]-4-(trifluoromethyl)nicotinamide], the mortality at 100 ppm was not below 95%.

For the compound `O=C(Nc1oncc1C1=CCCCC1)c1cnccc1C(F)(F)F` [Example 62, N-[4-(Cyclohex-1-ene-1-yl)-5-isoxazolyl]-4-(trifluoromethyl)nicotinamide], the mortality at 100 ppm is not below 95%.

As for `CSCN(C(=O)c1cnccc1C(F)(F)F)c1cc(C)no1` [Example 20, N-(3-Methyl-5-isoxazolyl)-N-methylthiomethyl-4-(trifluoromethyl)nicotinamide], the mortality at 100 ppm was not below 95%.

`CON=Cc1cc(NC(=O)c2cnccc2C(F)(F)F)on1` [Example 28, N-(3-Methoxyiminomethyl-5-isoxazolyl)-4-(trifluoromethyl)nicotinamide]: the mortality at 100 ppm was not below 95%.

For `O=C(Nc1onc(C2CC2)c1Cl)c1cnccc1C(F)(F)F` [Example 12, N-(4-Chloro-3-cyclopropyl-5-isoxazolyl)-4-(trifluoromethyl)nicotinamide], the mortality at 100 ppm is not below 95%.

Turning to `Cc1cc(N(CC#N)C(=O)c2cnccc2C(F)(F)F)on1` [Example 19, N-Cyanomethyl-N-(3-methyl-5-isoxazolyl)-4-(trifluoromethyl)nicotinamide], the mortality at 100 ppm is not below 95%.

Take `COc1cnoc1NC(=O)c1cnccc1C(F)(F)F` [Example 47, N-(4-Methoxy-5-isoxazolyl)-4-(trifluoromethyl)nicotinamide]: the mortality at 100 ppm was not below 95%.

Regarding `Cc1noc(NC(=O)c2cnccc2C(F)(F)F)n1` [Example 21, N-(3-Methyl-[1,2,4]oxadiazol-5-yl)-4-(trifluoromethyl)nicotinamide], the mortality at 100 ppm is not below 95%.

Regarding `CCCCCCc1cnoc1NC(=O)c1cnccc1C(F)(F)F` [Example 43, N-(4-Hexyl-5-isoxazolyl)-4-(trifluoromethyl)nicotinamide], the mortality at 100 ppm was not below 95%.

Consider `CCCCc1cnoc1NC(=O)c1cnccc1C(F)(F)F` [Example 39, N-(4-Butyl-5-isoxazolyl)-4-(trifluoromethyl)nicotinamide], for which the mortality at 100 ppm was not below 95%.

For the compound `O=Cc1cc(NC(=O)c2cnccc2C(F)(F)F)on1` [Example 7, N-(3-Formyl-5-isoxazolyl)-4-(trifluoromethyl)nicotinamide], the mortality at 100 ppm was not below 95%.

Regarding `Cc1cnsc1N(C(=O)c1cnccc1C(F)(F)F)C(=O)c1cnccc1C(F)(F)F` [Example 50, 5-[N,N-Bis(4-trifluoromethylnicotinoyl)]amino-4-methylthioisoxazole], the mortality at 100 ppm was not below 95%.

On to `CCCc1cnoc1NC(=O)c1cnccc1C(F)(F)F` [Example 35, N-(4-Propyl-5-isoxazolyl)-4-(trifluoromethyl)nicotinamide], for which the mortality at 100 ppm is not below 95%.

For the compound `Cc1noc(NC(=O)c2cnccc2C(F)(F)F)c1Cl` [Example 3, N-(4-Chloro-3-methyl-5-isoxazolyl)-4-(trifluoromethyl)nicotinamide], the mortality at 100 ppm was not below 95%.

Turning to `O=C(c1cnccc1C(F)(F)F)N(C(=O)c1cnccc1C(F)(F)F)c1oncc1Oc1ccccc1` [Example 52, 5-[N,N-Bis(4-trifluoromethylnicotinoyl)]amino-4-phenoxyisoxazole], the mortality at 100 ppm was not below 95%.

Regarding `O=C(Nc1oncc1C1CCCC1)c1cnccc1C(F)(F)F` [Example 42, N-(4-Cyclopentyl-5-isoxazolyl)-4-(trifluoromethyl)nicotinamide], the mortality at 100 ppm was not below 95%.

With `N#Cc1cc(NC(=O)c2cnccc2C(F)(F)F)on1` [Example 9, N-(3-Cyano-5-isoxazolyl)-4-(trifluoromethyl)nicotinamide], the mortality at 100 ppm was not below 95%.

Turning to `O=C(Nc1oncc1C1CCCCC1)c1cnccc1C(F)(F)F` [Example 65, N-(4-Cyclohexyl-5-isoxazolyl)-4-(trifluoromethyl)nicotinamide], the mortality at 100 ppm was not below 95%.

For the compound `CCc1cnoc1NC(=O)c1cnccc1C(F)(F)F` [Example 34, N-(4-Ethyl-5-isoxazolyl)-4-(trifluoromethyl)nicotinamide], the mortality at 100 ppm is not below 95%.

Regarding `CSc1cnoc1NC(=O)c1cnccc1C(F)(F)F` [Example 49, N-(4-Methylthio-5-isoxazolyl)-4-(trifluoromethyl)nicotinamide], the mortality at 100 ppm was not below 95%.

On to `N#Cc1noc(NC(=O)c2cnccc2C(F)(F)F)c1F` [Example 23, N-(4-Fluoro-3-cyano-5-isoxazolyl)-4-(trifluoromethyl)nicotinamide], for which the mortality at 100 ppm is not below 95%.

As for `CC(C)Cc1cnoc1NC(=O)c1cnccc1C(F)(F)F` [Example 40, N-(4-Isobutyl-5-isoxazolyl)-4-(trifluoromethyl)nicotinamide], the mortality at 100 ppm is not below 95%.

As for `COCc1noc(NC(=O)c2cnccc2C(F)(F)F)c1OC` [Example 48, N-(4-Methoxy-3-methoxymethyl-5-isoxazolyl)-4-(trifluoromethyl)nicotinamide], the mortality at 100 ppm is not below 95%.

As for `O=C(Nc1oncc1Cl)c1cnccc1C(F)(F)F` [Example 11, N-(4-Chloro-5-isoxazolyl)-4-(trifluoromethyl)nicotinamide], the mortality at 100 ppm was not below 95%.

`Cc1noc(NC(=O)c2cnccc2C(F)(F)F)c1F` [Example 66, N-(4-Fluoro-3-methyl-5-isoxazolyl)-4-(trifluoromethyl)nicotinamide]: the mortality at 100 ppm was not below 95%.

Regarding `O=C(Nc1oncc1CCc1ccccc1)c1cnccc1C(F)(F)F` [Example 46, N-(4-Phenylethyl-5-isoxazolyl)-4-(trifluoromethyl)nicotinamide], the mortality at 100 ppm was not below 95%.

As for `CC(=O)N(C(=O)c1cnccc1C(F)(F)F)c1cc(C)no1` [Example 27, N-Acetyl-N-(3-methyl-5-isoxazolyl)-4-(trifluoromethyl)nicotinamide], the mortality at 100 ppm is not below 95%.
